Data on 13 molecules can be found in patent US10292391B2, “Pesticidally active 1,2,4-triazole derivatives with sulphur containing substituents” (Syngenta Participations AG, priority 2015, dated 2019).

For series [1], the system named is Plutella xylostella (Diamond Back Moth). Nature of the series: Activity against Plutella xylostella, treated artificial diet. Particulars: 120 h, application rate of 200 ppm, L2 larvae, 5 days after infestation, read-out: effect in at least one of the two categories (mortality or growth inhibition). The format is in vivo. Here is the method: 24-well microtiter plates with artificial diet were treated with aqueous test solutions prepared from 10,000 ppm DMSO stock solutions by pipetting. After drying, the plates were infested with L2 larvae (10 to 15 per well). The samples were assessed for mortality and growth inhibition in comparison to untreated samples 5 days after infestation.

Series [2] concerns Diabrotica Balteata (Corn Root Worm). Kind of series: Activity against Diabrotica balteata, sprayed maize sprouts. Conditions: 96 h, application rate of 200 ppm, L2 larvae, 4 days after infestation, read-out: effect in at least one of the two categories (mortality or growth inhibition). It counts as in vivo. Here is the method:
Maize sprouts, placed on an agar layer in 24-well microtiter plates were treated with aqueous test solutions prepared from 10,000 ppm DMSO stock solutions by spraying. After drying, the plates were infested with L2 larvae (6 to 10 per well). The samples were assessed for mortality and growth inhibition in comparison to untreated samples 4 days after infestation.

The test system of series [3] is Euschistus heros(Neotropical Brown Stink Bug). Nature of the series: Activity against Euschistus heros, sprayed soybean leaf. It counts as in vivo. Conditions: 120 h, application rate of 200 ppm, N-2 nymphs, 5 days after infestation, read-out: effect in at least one of the two categories (mortality or growth inhibition). Here is the method: Soybean leaf on agar in 24-well microtiter plates were sprayed with aqueous test solutions prepared from 10,000 ppm DMSO stock solutions. After drying the leaf were infested with N-2 nymphs. The samples were assessed for mortality and growth inhibition in comparison to untreated samples 5 days after infestation.

For series [4], the system named is Frankliniella occidentalis (Western Flower Thrips). Nature of the series: Activity against Frankliniella occidentalis, sprayed sunflower leaf discs. It counts as in vivo. Particulars: foliar, 168 h, application rate of 200 ppm, population of mixed ages, 7 days after infestation. Here is the method: Sunflower leaf discs were placed on agar in 24-well microtiter plates and sprayed with aqueous test solutions prepared from 10,000 DMSO stock solutions. After drying the leaf discs were infested with a Frankliniella population of mixed ages. The samples were assessed for mortality 7 days after infestation.

Series [5] relates to Thrips tabaci (Onion Thrips). Nature of the series: Activity against Thrips tabaci, sprayed sunflower leaf discs. It counts as in vivo. Conditions: foliar, 144 h, application rate of 200 ppm, thrips population of mixed ages, 6 days after infestation. Here is the method: Sunflower leaf discs were placed on agar in 24-well microtiter plates and sprayed with aqueous test solutions prepared from 10,000 ppm DMSO stock solutions. After drying the leaf discs were infested with a thrips population of mixed ages. The samples were assessed for mortality 6 days after infestation.

Series [6] has as its system Spodoptera littoralis (Egyptian Cotton Leaf Worm). Nature of the series: Activity against Spodoptera littoralis, systemic via lettuce grown on treated agar. Particulars: 144 h, test rate of 12.5 ppm, root uptake by lettuce, 6 days after infestation, read-out: effect in at least one of the three categories (mortality, anti-feedancy, or growth inhibition). It counts as in vivo. From the text: Test compounds were applied by pipette from 10,000 ppm DMSO stock solutions into 24-well plates and mixed with agar. Lettuce seeds were placed on the agar and the multi well plate was closed by another plate which contains also agar. After 7 days the roots have absorbed the compound and the lettuce has grown into the lid plate. The lettuce leafs were now cut off into the lid plate. Spodoptera eggs were pipetted through a plastic stencil on a humid gel blotting paper and the plate closed with it. The samples were assessed for mortality, anti-feedant effect and growth inhibition in comparison to untreated samples 6 days after infestation.

Series [7] has the same test system. Kind of series: Activity against Spodoptera littoralis, sprayed cotton leaf discs. Particulars: foliar, 72 h, application rate of 200 ppm, L1 larvae, 3 days after infestation, read-out: control (at least one of mortality, anti-feedant effect, and growth inhibition). It counts as in vivo. Here is the method: Cotton leaf discs were placed on agar in 24-well microtiter plates and sprayed with aqueous test solutions prepared from 10,000 ppm DMSO stock solutions. After drying the leaf discs were infested with five L1 larvae. The samples were assessed for mortality, anti-feedant effect, and growth inhibition in comparison to untreated samples 3 days after infestation. Control of Spodoptera littoralis by a test sample is when at least one of mortality, anti-feedant effect, and growth inhibition is higher than the untreated sample.

For series [8], the system named is Myzus persicae (Green Peach Aphid). Nature of the series: Activity against Myzus persicae, sprayed sunflower leaf discs. The format is in vivo. Particulars: foliar, 144 h, application rate of 200 ppm, aphid population of mixed ages, 6 days after infestation. Here is the method:
Sunflower leaf discs were placed on agar in a 24-well microtiter plate and sprayed with aqueous test solutions prepared from 10,000 ppm DMSO stock solutions. After drying, the leaf discs were infested with an aphid population of mixed ages. The samples were assessed for mortality 6 days after infestation.

Series [9] has as its system Bemisia tabaci (Cotton White Fly). Nature of the series: Activity against Bemisia tabaci, sprayed cotton leaf discs. It counts as in vivo. Particulars: foliar, 144 h, application rate of 200 ppm, adult white flies, 6 days after incubation. Here is the method:
Cotton leaf discs were placed on agar in 24-well microtiter plates and sprayed with aqueous test solutions prepared from 10,000 ppm DMSO stock solutions. After drying the leaf discs were infested with adult white flies. The samples were checked for mortality 6 days after incubation.

The subject of series [10] is Myzus persicae (Green Peach Aphid). Nature of the series: Activity against Myzus persicae, systemic via roots of pea seedlings. Conditions: 144 h, test rate of 24 ppm, roots of pea seedlings in test solution, 6 days. It counts as in vivo. Here is the method:
Roots of pea seedlings infested with an aphid population of mixed ages were placed directly in the aqueous test solutions prepared from 10,000 DMSO stock solutions. The samples were assessed for mortality 6 days after placing seedlings in test solutions.

In series [11] the test system is Tetranychus urticae (Two-Spotted Spider Mite). Nature of the series: Activity against Tetranychus urticae, sprayed bean leaf discs. Conditions: foliar, 192 h. It counts as in vivo. Here is the method:
Bean leaf discs on agar in 24-well microtiter plates were sprayed with aqueous test solutions prepared from 10,000 ppm DMSO stock solutions. After drying the leaf discs were infested with a mite population of mixed ages. The samples were assessed for mortality on mixed population (mobile stages) 8 days after infestation.

With `CCS(=O)(=O)c1cc(-n2cc(C(F)(F)F)cn2)cnc1-c1nnc(-c2cc(C(F)(F)F)ccn2)n1C` [Compound P6], the percent effect (mortality or growth inhibition) at 200 ppm in series [1], in [2] and in series [3] was no less than 80% in each case. Also, the mortality at 200 ppm in series [4], in [5], in series [7], in series [8] and in [9] was no less than 80% in each case. For the same molecule, the percent control (mortality, anti-feedancy or growth inhibition) at 12.5 ppm in [6] was no less than 80%.

Turning to `CCS(=O)(=O)c1cc(-n2cc(C#N)cn2)cnc1-c1nnc(-c2cc(C(F)(F)F)ccn2)n1C` [Compound P14, 1-[5-ethylsulfonyl-6-[4-methyl-5-[4-(trifluoromethyl)-2-pyridyl]-1,2,4-triazol-3-yl]-3-pyridyl]pyrazole-4-carbonitrile], the percent effect (mortality or growth inhibition) at 200 ppm in series [1], in series [2] and in series [3] was no less than 80% in each case. In addition, the mortality at 200 ppm in series [4], in series [5], in [7], in [8] and in series [9] was no less than 80% throughout. For the same molecule, the percent control (mortality, anti-feedancy or growth inhibition) at 12.5 ppm in [6] was no less than 80%. Besides, the mortality at 24 ppm in series [10] was no less than 80%.

For the molecule `CCS(=O)(=O)c1cc(C2(C#N)CC2)cnc1-c1nnc(-c2cc(C(F)(F)F)ccn2)n1C` [Compound P17, 1-[5-ethylsulfonyl-6-[4-methyl-5-[4-(trifluoromethyl)-2-pyridyl]-1,2,4-triazol-3-yl]-3-pyridyl]cyclopropanecarbonitrile], the percent effect (mortality or growth inhibition) at 200 ppm in series [1], in series [2] and in [3] was no less than 80% throughout. For the same molecule, the mortality at 200 ppm in series [4], in series [5], in [7], in series [8] and in series [9] was no less than 80% each time. Moreover, the percent control (mortality, anti-feedancy or growth inhibition) at 12.5 ppm in series [6] is no less than 80%. In addition, in series [10], the mortality at 24 ppm is no less than 80%.

Regarding `CCS(=O)(=O)c1cc(-c2nccc(C#N)n2)cnc1-c1nnc(-c2cc(C(F)(F)F)ccn2)n1C` [Compound P19], the mortality at 200 ppm in series [11] and in series [7] was no less than 80% in each case. Besides, in [2], the percent effect (mortality or growth inhibition) at 200 ppm was no less than 80%.

As for `CCS(=O)(=O)c1cc(-n2cnc(Cl)n2)cnc1-c1nnc(-c2cc(C(F)(F)F)ccn2)n1C` [Compound P27], the percent effect (mortality or growth inhibition) at 200 ppm in series [1], in [2] and in series [3] was no less than 80% throughout. For the same molecule, the mortality at 200 ppm in series [4], in series [5], in series [7], in [8] and in series [9] was no less than 80% in each case. In addition, the percent control (mortality, anti-feedancy or growth inhibition) at 12.5 ppm in series [6] was no less than 80%. The molecule further gave a mortality at 24 ppm in series [10] of no less than 80%.

Molecule `CCSc1ccc(-c2ccc(C(F)(F)F)cc2)nc1-c1nnc(-c2cc(C(F)(F)F)ccn2)n1C` [Compound P31, 3-ethylsulfanyl-2-[4-methyl-5-[4-(trifluoromethyl)-2-pyridyl]-1,2,4-triazol-3-yl]-6-[4-(trifluoromethyl)phenyl]pyridine] gave a melting point of 174 to 175 °C.

As for `CCS(=O)(=O)c1ccc(-c2ccc(C(F)(F)F)cc2)nc1-c1nnc(-c2cc(C(F)(F)F)ccn2)n1C` [Compound P32, 3-ethylsulfonyl-2-[4-methyl-5-[4-(trifluoromethyl)-2-pyridyl]-1,2,4-triazol-3-yl]-6-[4-(trifluoromethyl)phenyl]pyridine], the percent effect (mortality or growth inhibition) at 200 ppm in series [1] and in series [2] was no less than 80% in each case. Besides, the mortality at 200 ppm in [5], in [7] and in series [9] was no less than 80% in each case.

Turning to `CCSc1cc(SC(F)(F)F)cnc1-c1nnc(-c2cc(C(F)(F)F)ccn2)n1C` [Compound P33, 3-ethylsulfanyl-2-[4-methyl-5-[4-(trifluoromethyl)-2-pyridyl]-1,2,4-triazol-3-yl]-5-(trifluoromethylsulfanyl)pyridine], the melting point lay within 94 to 95 °C.

As to `CCS(=O)(=O)c1ccc(-n2cncn2)nc1-c1nnc(-c2cc(C(F)(F)F)ccn2)n1C` [Compound P37], the percent effect (mortality or growth inhibition) at 200 ppm in [1], in [2] and in series [3] was no less than 80% each time. Moreover, the mortality at 200 ppm in [7], in series [8] and in series [9] was no less than 80% throughout. This molecule also registered a mortality at 24 ppm in series [10] of no less than 80%.

Take `CCS(=O)(=O)c1cc(-n2cnc(Cl)n2)cnc1-c1nnc(-c2cc(C(F)(F)F)ncn2)n1C` [Compound P45]: the percent effect (mortality or growth inhibition) at 200 ppm in [1], in [2] and in [3] was no less than 80% throughout. For the same molecule, the mortality at 200 ppm in [4], in series [5], in series [7], in [8] and in [9] was no less than 80% in each case. The mortality at 24 ppm in series [10] was no less than 80%.

For `CCS(=O)(=O)c1ccc(-n2cnc(Cl)n2)nc1-c1nnc(-c2cc(C(F)(F)F)ncn2)n1C` [Compound P48, 4-[5-[6-(3-chloro-1,2,4-triazol-1-yl)-3-ethylsulfonyl-2-pyridyl]-4-methyl-1,2,4-triazol-3-yl]-6-(trifluoromethyl)pyrimidine], the percent effect (mortality or growth inhibition) at 200 ppm in [1], in [2] and in series [3] was no less than 80% in each case. The mortality at 200 ppm in [4], in series [7], in [8] and in [9] was no less than 80% each time. For the same molecule, the percent control (mortality, anti-feedancy or growth inhibition) at 12.5 ppm in series [6] is no less than 80%.

Molecule `CCS(=O)(=O)c1ccc(-n2cnc(C#N)n2)nc1-c1nnc(-c2cc(C(F)(F)F)ncn2)n1C` [Compound P49] displayed a melting point of 242 to 244 °C.

In turn, `CCS(=O)(=O)c1ccc(-c2cccc(F)c2)nc1-c1nnc(-c2cc(C(F)(F)F)ncn2)n1C` [Compound P51] returned a melting point of 201 to 203 °C.

By mortality is commonly meant the share of the test organisms that died. The term melting point denotes the temperature of the solid-liquid transition.
